These results are taken from BindingDB's records for doi:10.1016/j.bmcl.2005.03.003 (Gsk, 2005).

The term IC50 denotes the concentration at which inhibition is half-maximal. Lower therefore signals greater potency in that assay.

For the assay, the target named is T1, Phenylalanine--tRNA ligase alpha/beta subunit (Staphylococcus aureus, UniProt P68849+Q9AGR3).
T1 sequence (P68849 whole entry): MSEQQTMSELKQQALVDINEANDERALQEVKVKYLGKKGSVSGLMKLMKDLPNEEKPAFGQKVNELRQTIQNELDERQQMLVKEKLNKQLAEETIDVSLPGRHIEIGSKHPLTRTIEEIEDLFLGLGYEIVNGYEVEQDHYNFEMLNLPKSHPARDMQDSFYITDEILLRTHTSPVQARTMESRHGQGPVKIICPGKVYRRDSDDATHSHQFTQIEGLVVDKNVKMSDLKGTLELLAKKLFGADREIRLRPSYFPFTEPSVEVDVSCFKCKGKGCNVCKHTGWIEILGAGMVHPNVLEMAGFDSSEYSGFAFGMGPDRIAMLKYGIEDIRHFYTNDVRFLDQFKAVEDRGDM
T1 sequence (Q9AGR3 whole entry): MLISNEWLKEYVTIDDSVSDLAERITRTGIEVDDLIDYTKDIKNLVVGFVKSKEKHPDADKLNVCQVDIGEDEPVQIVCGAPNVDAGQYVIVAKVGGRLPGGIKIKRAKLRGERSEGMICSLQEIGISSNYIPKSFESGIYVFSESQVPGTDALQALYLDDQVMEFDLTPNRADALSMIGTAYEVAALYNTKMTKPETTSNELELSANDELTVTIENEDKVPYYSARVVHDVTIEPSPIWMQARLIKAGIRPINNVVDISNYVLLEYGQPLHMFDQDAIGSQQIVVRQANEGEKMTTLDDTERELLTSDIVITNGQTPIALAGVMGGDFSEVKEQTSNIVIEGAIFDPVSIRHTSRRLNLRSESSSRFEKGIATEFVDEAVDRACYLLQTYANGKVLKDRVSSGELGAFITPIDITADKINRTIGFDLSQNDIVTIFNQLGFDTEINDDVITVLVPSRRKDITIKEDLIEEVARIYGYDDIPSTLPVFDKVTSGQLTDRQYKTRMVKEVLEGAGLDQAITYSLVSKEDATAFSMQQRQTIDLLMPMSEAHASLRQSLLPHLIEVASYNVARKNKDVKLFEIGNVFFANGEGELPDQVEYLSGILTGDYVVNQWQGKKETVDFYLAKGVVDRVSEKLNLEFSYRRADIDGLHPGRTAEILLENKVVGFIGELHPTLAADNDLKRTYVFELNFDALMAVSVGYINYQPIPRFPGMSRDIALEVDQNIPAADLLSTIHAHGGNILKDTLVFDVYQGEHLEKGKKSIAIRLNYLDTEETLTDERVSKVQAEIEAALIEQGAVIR
Description: Homogeneous Enzyme Assay with SPA Beads. The protocol: The reactions were performed in […] 384-well Packard Optiplates. After 10 min of incubation, the reaction was stopped by addition of a continuously shaken suspension of YSi SPA beads at pH 2. Under acidic conditions, SPA beads bind tRNA aggregates, while radiolabeled amino acid substrate remains in solution. The beads were allowed to settle for at least 45 min and the plates were counted in a microplate scintillation counter TopCount (Packard).

Regarding `O=C(O)CCCOc1ccccc1CNCC(O)c1cc(Br)cs1` (configuration not stated) [4-[2-({[2-(4-bromothiophen-2-yl)-2-hydroxyethyl]amino}methyl)phenoxy]butanoic acid], the 50% inhibitory concentration (IC50) (pH 2) amounted to 43 nM. `OC(CNCc1ccccc1N1CCOCC1)c1cccc(C(F)(F)F)c1` (configuration not stated) [2-({[2-(morpholin-4-yl)phenyl]methyl}amino)-1-[3-(trifluoromethyl)phenyl]ethan-1-ol]: the half-maximal inhibitory concentration (IC50) (pH 7.9, 37 °C) is more than 10000 nM.
